Measured values as given in ChEMBL document CHEMBL1201862, “PubChem BioAssay data set” (2004).
Activity calls are given as the source filed them.

How the values were obtained:
[1] = target: T1, Low molecular weight phosphotyrosine protein phosphatase (Homo sapiens, UniProt P24666); type: functional; settings: read-out: IC50_Mean
T1 sequence (P24666 whole entry): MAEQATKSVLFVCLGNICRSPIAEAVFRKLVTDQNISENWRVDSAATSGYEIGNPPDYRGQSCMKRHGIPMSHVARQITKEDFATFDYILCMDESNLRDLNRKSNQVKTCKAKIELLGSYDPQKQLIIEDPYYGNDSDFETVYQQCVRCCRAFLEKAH

[2] = target: T1, Low molecular weight phosphotyrosine protein phosphatase; type: functional; settings: read-out: IC50_Mean; remark: listed apart in the source
Protein Wnt-3a = Protein Wnt-3a (Mus musculus, UniProt P27467); assay: antagonism of Wnt3a pathway luciferase reporter – Wnt-LIGHT cells, luminescence, selectivity assay for Gli-SUFU antagonist project, dose response (AID 651570); type: functional; settings: read-out: IC50_Mean;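 further: Wnt-LIGHT reporter cells stimulated with conditioned medium from Wnt3a-producing cells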
[3] = non-specific 3'UTR reporter inhibition in Clone20-Shn3RL – cell-based, Renilla luciferase, cherry-picked, counter-screen for Shn3 inhibitor project, dose response (AID 624133); type: functional
[4] = reduction of Shn3 3'UTR-driven luciferase in osteoblasts – cell-based, Clone20 osteoblasts, firefly luciferase, cherry-picked, dose response (AID 624132); type: functional;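 further: firefly luciferase luminescence from reporter carrying the Shn3 3'UTR in osteoblasts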
[5] = loss of viability in HepG2 cells – cell-based, CellTiter-Glo, cherry-picked, cytotoxicity control for Shn3 inhibitor project, dose response (AID 624134); type: functional
HEK293 [6] = assay: optical interference in Abeta FP readout, dose response, artefact control for IDE activator project, biochemical, fluorescence polarization (AID 588442); type: functional, cell-based; settings: Homo sapiens
Insulin-degrading enzyme [7] = target: T2, Insulin-degrading enzyme (Homo sapiens, UniProt P14735); assay: recombinant IDE activation, cell-free – biochemical, fluorescence polarization, counter-screen for IDE activator project, dose response (AID 588681)
T2 sequence (P14735 whole entry): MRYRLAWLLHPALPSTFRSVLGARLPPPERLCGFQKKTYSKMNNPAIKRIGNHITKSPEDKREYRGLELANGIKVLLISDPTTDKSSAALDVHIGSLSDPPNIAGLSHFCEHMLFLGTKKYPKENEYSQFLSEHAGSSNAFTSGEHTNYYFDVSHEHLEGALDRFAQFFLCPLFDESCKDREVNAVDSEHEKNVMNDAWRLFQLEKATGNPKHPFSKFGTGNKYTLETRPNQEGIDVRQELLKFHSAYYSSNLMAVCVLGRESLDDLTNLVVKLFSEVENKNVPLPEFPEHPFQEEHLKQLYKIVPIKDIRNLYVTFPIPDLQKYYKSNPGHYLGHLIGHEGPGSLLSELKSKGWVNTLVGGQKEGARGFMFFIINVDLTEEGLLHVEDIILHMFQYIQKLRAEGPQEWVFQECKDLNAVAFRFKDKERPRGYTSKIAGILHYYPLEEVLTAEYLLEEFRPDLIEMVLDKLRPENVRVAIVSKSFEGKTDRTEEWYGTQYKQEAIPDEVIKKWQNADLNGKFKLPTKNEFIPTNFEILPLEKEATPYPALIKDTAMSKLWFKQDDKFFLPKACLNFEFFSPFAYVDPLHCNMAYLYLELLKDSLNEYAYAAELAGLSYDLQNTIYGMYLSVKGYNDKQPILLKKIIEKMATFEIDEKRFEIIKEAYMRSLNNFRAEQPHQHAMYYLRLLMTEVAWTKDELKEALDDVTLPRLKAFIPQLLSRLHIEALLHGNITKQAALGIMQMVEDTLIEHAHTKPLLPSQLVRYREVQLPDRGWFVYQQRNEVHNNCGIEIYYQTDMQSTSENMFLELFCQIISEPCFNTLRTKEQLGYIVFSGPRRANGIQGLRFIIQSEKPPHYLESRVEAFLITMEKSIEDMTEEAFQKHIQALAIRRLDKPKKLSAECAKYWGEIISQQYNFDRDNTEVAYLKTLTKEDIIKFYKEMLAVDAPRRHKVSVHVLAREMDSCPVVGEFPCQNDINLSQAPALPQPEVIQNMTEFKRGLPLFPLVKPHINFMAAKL

[8] = Vero E6 cell cytotoxicity, dose response, cytotoxicity control for non-replicating M. tuberculosis project, secondary assay (AID 492998); type: functional, VeroE6; settings: Vero C1008
Insulin-degrading enzyme [9] = target: T2, Insulin-degrading enzyme; assay: cellular IDE activation of Abeta substrate cleavage – fluorescence polarization, HEK cells, dose response (AID 588439); type: functional, cell-based
[10] = HepG2 cell cytotoxicity, dose response, cytotoxicity control for non-replicating M. tuberculosis project (AID 489018); type: functional; settings: Mycobacterium tuberculosis
Melanocortin receptor 4 = Melanocortin receptor 4 (Homo sapiens, UniProt P32245); type: functional, cell-based;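 further: Cell-based assay with luminescence read-out, confirmatory dose-response testing for agonist activity of biased ligands at MC4R; human U2OS cells with tagged receptor and beta-arrestin; potency of agonists that increase receptor coupling to beta-arrestin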
[11] = THP-1 cell cytotoxicity, dose response, cytotoxicity control for non-replicating M. tuberculosis project (AID 489025); type: functional
HEK293 [12] = assay: membrane integrity loss in HEK cells – cell-based, fluorescence, cytotoxicity control for IDE activator project, dose response (AID 588440); type: functional; settings: Homo sapiens;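 further: cytotoxicity by LDH release measuring loss of membrane integrity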
cells = type: functional
X-box-binding protein 1 = target: T3, X-box-binding protein 1 (Homo sapiens, UniProt P17861); type: functional, Cricetulus griseus;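 further: confirmatory dose-response counter-screen serving a CHOP assay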
T3 sequence (P17861 whole entry): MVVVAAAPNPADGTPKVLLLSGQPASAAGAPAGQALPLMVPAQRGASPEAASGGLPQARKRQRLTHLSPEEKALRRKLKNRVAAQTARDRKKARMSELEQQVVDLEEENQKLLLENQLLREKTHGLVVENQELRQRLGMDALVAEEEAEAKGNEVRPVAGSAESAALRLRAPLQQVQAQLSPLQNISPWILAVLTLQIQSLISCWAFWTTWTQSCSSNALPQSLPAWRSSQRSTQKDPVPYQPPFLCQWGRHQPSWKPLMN

[13] = target: T4, Corticotropin-releasing factor receptor 2/Corticotropin-releasing factor-binding protein (Homo sapiens, UniProt P24387+Q13324); assay: Dose Response confirmation of uHTS hits for small molecule antagonists of the CRF-binding protein and CRF-R2 receptor complex.; type: functional; settings: read-out: IC50_Mean
T4 sequence (Q13324 whole entry): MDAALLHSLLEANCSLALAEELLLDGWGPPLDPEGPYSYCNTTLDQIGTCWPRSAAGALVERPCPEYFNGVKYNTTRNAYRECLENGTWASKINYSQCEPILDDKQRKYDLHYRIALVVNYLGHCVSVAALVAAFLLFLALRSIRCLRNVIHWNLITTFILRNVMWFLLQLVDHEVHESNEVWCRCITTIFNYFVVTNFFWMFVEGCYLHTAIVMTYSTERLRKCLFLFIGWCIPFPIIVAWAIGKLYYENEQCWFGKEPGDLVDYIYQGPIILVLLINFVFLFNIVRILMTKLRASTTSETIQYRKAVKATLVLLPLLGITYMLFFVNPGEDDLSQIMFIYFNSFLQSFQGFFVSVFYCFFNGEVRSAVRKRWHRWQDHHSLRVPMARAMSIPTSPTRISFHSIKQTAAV
T4 sequence (P24387 whole entry): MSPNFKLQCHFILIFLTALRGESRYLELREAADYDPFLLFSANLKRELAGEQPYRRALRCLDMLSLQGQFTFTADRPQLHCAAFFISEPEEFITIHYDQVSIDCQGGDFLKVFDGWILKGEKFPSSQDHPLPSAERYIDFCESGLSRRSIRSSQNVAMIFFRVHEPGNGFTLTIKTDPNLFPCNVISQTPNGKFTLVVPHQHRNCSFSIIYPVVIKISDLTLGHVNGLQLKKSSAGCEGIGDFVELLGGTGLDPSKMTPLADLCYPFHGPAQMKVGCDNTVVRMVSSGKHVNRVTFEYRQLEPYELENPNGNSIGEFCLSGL

[14] = target: T4, Corticotropin-releasing factor receptor 2/Corticotropin-releasing factor-binding protein; assay: activators of CRF receptor 2 with binding protein – uHTS hits, confirmation (AID 602473); type: functional; settings: read-out: EC50_Mean
[15] = blockers of CRF-binding protein–CRF-R2 complex – cell-based, uHTS hits, 384-well, dose response (AID 651639); type: functional, Homo sapiens; settings: read-out: IC50_Mean
[16] = target: T5, ATP-dependent translocase ABCB1 (Homo sapiens, UniProt P08183); assay: inhibition of BCRP-mediated JC-1 efflux – Ig-MXP3 cells, flow cytometry, set 2, dose response (AID 504566); type: functional; settings: read-out: EC50_MICROM_;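 further: flow cytometry median green fluorescence of retained JC-1 dye; potency of efflux pump inhibition measured as rising substrate retention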
[17] = target: T5, ATP-dependent translocase ABCB1; assay: P-gp JC-1 efflux blockade concentration-response – Jurkat-DNR cells, flow cytometry, set 2, dose response (AID 504569); type: functional; settings: read-out: EC50_MICROM_;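 further: potency of pump inhibitors that raise cellular JC-1 green fluorescence up to the nicardipine level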

T5 sequence (P08183 whole entry): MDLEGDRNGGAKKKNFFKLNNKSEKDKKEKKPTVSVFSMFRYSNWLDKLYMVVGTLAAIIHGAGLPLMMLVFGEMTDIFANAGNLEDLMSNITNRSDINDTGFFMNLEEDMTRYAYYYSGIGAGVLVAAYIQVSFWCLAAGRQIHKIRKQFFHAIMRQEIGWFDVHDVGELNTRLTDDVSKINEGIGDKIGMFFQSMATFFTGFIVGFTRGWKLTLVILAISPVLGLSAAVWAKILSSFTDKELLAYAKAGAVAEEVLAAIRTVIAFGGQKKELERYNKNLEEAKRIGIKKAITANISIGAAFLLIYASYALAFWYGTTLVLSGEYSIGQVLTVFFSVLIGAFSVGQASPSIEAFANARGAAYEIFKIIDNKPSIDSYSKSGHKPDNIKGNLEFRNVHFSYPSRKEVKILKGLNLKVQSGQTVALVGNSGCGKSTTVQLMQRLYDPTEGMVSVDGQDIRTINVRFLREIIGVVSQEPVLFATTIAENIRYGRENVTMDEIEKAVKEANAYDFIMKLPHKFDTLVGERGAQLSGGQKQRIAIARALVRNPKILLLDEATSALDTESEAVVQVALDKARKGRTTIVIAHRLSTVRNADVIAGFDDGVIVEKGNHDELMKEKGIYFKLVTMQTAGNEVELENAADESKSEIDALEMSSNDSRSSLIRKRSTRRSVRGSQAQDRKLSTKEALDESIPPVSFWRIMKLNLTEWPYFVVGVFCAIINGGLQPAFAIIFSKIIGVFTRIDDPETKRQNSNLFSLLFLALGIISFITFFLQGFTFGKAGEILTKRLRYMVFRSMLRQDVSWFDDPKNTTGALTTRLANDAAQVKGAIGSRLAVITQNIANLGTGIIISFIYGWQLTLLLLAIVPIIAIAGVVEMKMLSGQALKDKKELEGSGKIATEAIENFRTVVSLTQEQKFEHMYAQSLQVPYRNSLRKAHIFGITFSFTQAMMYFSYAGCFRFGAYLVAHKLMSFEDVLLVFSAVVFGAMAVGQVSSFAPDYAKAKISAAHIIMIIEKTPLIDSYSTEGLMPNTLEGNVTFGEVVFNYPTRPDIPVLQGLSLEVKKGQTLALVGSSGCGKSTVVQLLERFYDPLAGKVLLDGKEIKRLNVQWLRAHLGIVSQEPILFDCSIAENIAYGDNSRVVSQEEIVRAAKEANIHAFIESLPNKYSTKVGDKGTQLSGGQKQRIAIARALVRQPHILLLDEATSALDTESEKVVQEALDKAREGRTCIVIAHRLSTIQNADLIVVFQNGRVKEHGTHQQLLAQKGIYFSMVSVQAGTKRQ
Sequence of Protein Wnt-3a (P27467 whole entry): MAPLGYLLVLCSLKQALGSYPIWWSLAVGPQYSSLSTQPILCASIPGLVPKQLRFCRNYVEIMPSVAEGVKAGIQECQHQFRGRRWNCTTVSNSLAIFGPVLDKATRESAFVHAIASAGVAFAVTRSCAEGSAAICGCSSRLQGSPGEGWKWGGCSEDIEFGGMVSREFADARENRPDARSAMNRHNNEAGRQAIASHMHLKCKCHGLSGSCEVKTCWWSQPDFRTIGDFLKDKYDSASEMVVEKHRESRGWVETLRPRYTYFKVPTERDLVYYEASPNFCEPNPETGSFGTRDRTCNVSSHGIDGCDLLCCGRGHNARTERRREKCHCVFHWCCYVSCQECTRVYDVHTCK
Sequence of Melanocortin receptor 4 (P32245 whole entry): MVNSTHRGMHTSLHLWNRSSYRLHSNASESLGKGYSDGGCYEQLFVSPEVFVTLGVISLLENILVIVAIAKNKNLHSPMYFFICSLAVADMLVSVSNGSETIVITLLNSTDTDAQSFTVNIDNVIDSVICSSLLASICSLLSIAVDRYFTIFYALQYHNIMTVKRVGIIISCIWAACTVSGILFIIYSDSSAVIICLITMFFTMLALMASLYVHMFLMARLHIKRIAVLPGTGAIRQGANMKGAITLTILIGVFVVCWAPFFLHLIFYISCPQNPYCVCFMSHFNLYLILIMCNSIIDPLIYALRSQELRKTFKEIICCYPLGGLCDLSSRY

SMILES: O=C1C(=Cc2cn(-c3ccccc3)nc2-c2ccc(OCc3ccccc3F)cc2)SC(=S)N1CCS(=O)(=O)O
- IC50 [1]: 4.12 µM (active)
- IC50 [2]: 12.2 µM (active)

SMILES: C=CCOC(=O)c1[nH]c2c(c1C)C(=O)CC(c1cc(OC)c(OC)c(OC)c1)C2 (stereo unspecified)
- IC50 (Protein Wnt-3a): 1.89 µM (active)
- AC50 [3]: 1.28 µM (active)
- AC50 [4]: 1.83 µM (active)
- AC50 [5]: 53.5 µM (active)

SMILES: Cc1c(CN2CCC(CO)(CCOc3ccccc3)CC2)[nH]c2c(Cl)cccc12
- EC50 (HEK293 [6]): > 54.7 µM (inactive)
- EC50 (Insulin-degrading enzyme [7]): > 54.7 µM (inactive)
- CC50 [8]: 16.3 µM (active)
- EC50 (Insulin-degrading enzyme [9]): 14.3 µM (inactive)
- CC50 [10]: 14.5 µM (active)
- EC50 (Melanocortin receptor 4): > 89.2 µM (inactive)
- CC50 [11]: 12.4 µM (active)
- IC50 (HEK293 [12]): 22.8 µM (inactive)
- IC50 (cells): 6.5 µM (active)
- Absolute IC50 (XBP1) (X-box-binding protein 1): 10 µM

SMILES: CCCOc1ccc(C(=O)N2CCN(c3ccc(NC(=O)CC)cc3Cl)CC2)cc1
- IC50 [13]: 16 µM (active)
- EC50 [14]: > 53 µM (inactive)
- IC50 [15]: 16.3 µM (active)

SMILES: COc1ccccc1CNc1nc(NCc2cnc(C)cn2)c2sccc2n1
- IC50 [1]: 4.31 µM (active)
- IC50 [2]: 5.74 µM (active)

SMILES: COc1ccc(CN(C)C(=O)c2cccc(NC(=O)CC3SC(N4CCCCC4)=NC3=O)c2)c(OC)c1 (stereo unspecified)
- IC50 (Protein Wnt-3a): 21.7 µM (inactive)

SMILES: O=C(C1CCCCC1)N1CCN(c2cc(-c3ccccc3)nc3cc(-c4cccc(Cl)c4)nn23)CC1
- EC50 [16]: 1.75 µM (active)
- EC50 [17]: 1.71 µM (active)

SMILES: COc1ccc(-c2cc3nc(C)cc(N4CCN(C(=O)c5ccco5)CC4)n3n2)cc1
- EC50 [16]: 1.52 µM (active)
- EC50 [17]: 4.78 µM (active)
